Experimental data as given in PubChem BioAssay (NCI).
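Five concentrations, 48 hours, 96-well plates. TGI is the concentration that stops growth completely.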

What was measured:
Assay in all cases: DTP human tumour cell line panel, 48 h
[1] = tested on: OVCAR-4 ovarian
[2] = tested on: BT-549 breast
[3] = tested on: DU-145 prostate
[4] = tested on: CAKI-1 renal
[5] = tested on: MDA-MB-435
[6] = tested on: SK-MEL-28 melanoma
[7] = tested on: MOLT-4 leukemia
[8] = tested on: HOP-62 NSCLC
[9] = tested on: UACC-62 melanoma
[10] = tested on: HT29 colon
[11] = tested on: KM12 colon
[12] = tested on: SK-MEL-2 melanoma
[13] = tested on: RPMI-8226 leukemia
[14] = tested on: SR leukemia
[15] = tested on: CCRF-CEM leukemia
[16] = tested on: SN12C renal
[17] = tested on: COLO 205 colon
[18] = tested on: U251 CNS
[19] = tested on: SK-OV-3 ovarian
[20] = tested on: RXF 393 renal
[21] = tested on: SK-MEL-5 melanoma
[22] = tested on: OVCAR-3 ovarian
[23] = tested on: SNB-75 CNS
[24] = tested on: PC-3 prostate
[25] = tested on: M14 melanoma
[26] = tested on: HCT-116 colon
[27] = tested on: MCF7 breast
[28] = tested on: HCT-15 colon
[29] = tested on: SF-268 CNS
[30] = tested on: UO-31 renal
[31] = tested on: NCI-H226 lung
[32] = tested on: A549 NSCLC
[33] = tested on: SNB-19 CNS
[34] = tested on: TK-10 renal
[35] = tested on: MDA-N
[36] = tested on: A498 renal
[37] = tested on: MALME-3M melanoma
[38] = tested on: OVCAR-8 ovarian
[39] = tested on: LOX IMVI melanoma
[40] = tested on: SW-620 colon
[41] = tested on: HS 578T breast
[42] = tested on: NCI/ADR-RES ovarian
[43] = tested on: 786-0 renal
[44] = tested on: K-562 leukemia
[45] = tested on: SF-539 CNS
[46] = tested on: MDA-MB-231 breast
[47] = tested on: NCI-H23 lung
[48] = tested on: T-47D breast
[49] = tested on: HL-60(TB) leukemia
[50] = tested on: UACC-257 melanoma
[51] = tested on: IGROV1 ovarian
[52] = tested on: NCI-H460 lung
[53] = tested on: HOP-92 NSCLC
[54] = tested on: ACHN renal
[55] = tested on: SF-295 CNS
[56] = tested on: EKVX NSCLC
[57] = tested on: NCI-H522 lung
[58] = tested on: OVCAR-5 ovarian
[59] = tested on: HCC-2998 colon

Cc1cc(C)nc(NS(=O)(=O)c2ccc(NC(=O)c3cc([N+](=O)[O-])cc([N+](=O)[O-])c3)cc2)n1
TGI [1]: > 100 µM
TGI [2]: > 100 µM
TGI [3]: > 100 µM
TGI [4]: > 100 µM
TGI [5]: > 100 µM
TGI [6]: > 100 µM
TGI [7]: 13.5 µM
TGI [8]: > 100 µM
TGI [9]: > 100 µM
TGI [10]: > 100 µM
TGI [11]: > 100 µM
TGI [12]: > 100 µM
TGI [13]: > 100 µM
TGI [14]: 14.7 µM
TGI [15]: > 100 µM
TGI [16]: > 100 µM
TGI [17]: 45.7 µM
TGI [18]: > 100 µM
TGI [19]: > 100 µM
TGI [20]: > 100 µM
TGI [21]: > 100 µM
TGI [22]: 98.4 µM
TGI [23]: > 100 µM
TGI [24]: > 100 µM
TGI [25]: > 100 µM
TGI [26]: > 100 µM
TGI [27]: > 100 µM
TGI [28]: > 100 µM
TGI [29]: > 100 µM
TGI [30]: > 100 µM
TGI [31]: > 100 µM
TGI [32]: > 100 µM
TGI [33]: > 100 µM
TGI [34]: > 100 µM
TGI [35]: > 100 µM
TGI [36]: > 100 µM
TGI [37]: > 100 µM
TGI [38]: > 100 µM
TGI [39]: > 100 µM
TGI [40]: > 100 µM
TGI [41]: > 100 µM
TGI [42]: > 100 µM
TGI [43]: > 100 µM
TGI [44]: > 100 µM
TGI [45]: > 100 µM
TGI [46]: > 100 µM
TGI [47]: > 100 µM
TGI [48]: > 100 µM
TGI [49]: > 100 µM
TGI [50]: > 100 µM
TGI [51]: > 100 µM
TGI [52]: > 100 µM
TGI [53]: > 100 µM

Cc1cccc(Nc2cc(Cl)nc(SCC(=O)O)n2)c1C
TGI [1]: > 100 µM
TGI [2]: > 100 µM
TGI [3]: > 100 µM
TGI [4]: > 100 µM
TGI [5]: > 100 µM
TGI [6]: > 100 µM
TGI [7]: > 100 µM
TGI [8]: > 100 µM
TGI [9]: > 100 µM
TGI [10]: > 100 µM
TGI [11]: > 100 µM
TGI [12]: > 100 µM
TGI [13]: > 100 µM
TGI [14]: > 100 µM
TGI [54]: > 100 µM
TGI [15]: > 100 µM
TGI [16]: > 100 µM
TGI [17]: > 100 µM
TGI [18]: > 100 µM
TGI [19]: > 100 µM
TGI [20]: > 100 µM
TGI [21]: > 100 µM
TGI [22]: > 100 µM
TGI [23]: > 100 µM
TGI [24]: > 100 µM
TGI [25]: > 100 µM
TGI [26]: > 100 µM
TGI [27]: > 100 µM
TGI [28]: > 100 µM
TGI [55]: > 100 µM
TGI [56]: > 100 µM
TGI [31]: > 100 µM
TGI [32]: > 100 µM
TGI [33]: > 100 µM
TGI [34]: > 100 µM
TGI [35]: > 100 µM
TGI [36]: > 100 µM
TGI [37]: > 100 µM
TGI [38]: > 100 µM
TGI [39]: > 100 µM
TGI [40]: > 100 µM
TGI [41]: > 100 µM
TGI [42]: > 100 µM
TGI [43]: > 100 µM
TGI [44]: > 100 µM
TGI [45]: > 100 µM
TGI [46]: > 100 µM
TGI [57]: > 100 µM
TGI [47]: > 100 µM
TGI [58]: > 100 µM
TGI [48]: > 100 µM
TGI [49]: > 100 µM
TGI [50]: > 100 µM
TGI [51]: > 100 µM
TGI [52]: > 100 µM
TGI [53]: > 100 µM

Cc1ccc(S(=O)(=O)NC(=O)NC(CCC(N)=O)C(=O)O)cc1 (stereo not drawn)
TGI [1]: > 100 µM
TGI [2]: > 100 µM
TGI [3]: > 100 µM
TGI [6]: > 100 µM
TGI [7]: > 100 µM
TGI [8]: > 100 µM
TGI [9]: > 100 µM
TGI [10]: > 100 µM
TGI [11]: > 100 µM
TGI [12]: > 100 µM
TGI [13]: > 100 µM
TGI [14]: > 100 µM
TGI [54]: > 100 µM
TGI [15]: > 100 µM
TGI [16]: > 100 µM
TGI [17]: > 100 µM
TGI [18]: > 100 µM
TGI [19]: > 100 µM
TGI [20]: > 100 µM
TGI [21]: > 100 µM
TGI [23]: > 100 µM
TGI [24]: > 100 µM
TGI [25]: > 100 µM
TGI [26]: > 100 µM
TGI [27]: > 100 µM
TGI [28]: > 100 µM
TGI [55]: > 100 µM
TGI [29]: > 100 µM
TGI [30]: > 100 µM
TGI [32]: > 100 µM
TGI [33]: > 100 µM
TGI [34]: > 100 µM
TGI [35]: > 100 µM
TGI [37]: > 100 µM
TGI [38]: > 100 µM
TGI [39]: > 100 µM
TGI [40]: > 100 µM
TGI [41]: > 100 µM
TGI [42]: > 100 µM
TGI [43]: > 100 µM
TGI [44]: > 100 µM
TGI [45]: > 100 µM
TGI [46]: > 100 µM
TGI [57]: > 100 µM
TGI [47]: > 100 µM
TGI [58]: > 100 µM
TGI [48]: > 100 µM
TGI [49]: > 100 µM
TGI [50]: > 100 µM
TGI [51]: > 100 µM
TGI [52]: > 100 µM
TGI [53]: > 100 µM

NCCNC(=O)CN(CC(=O)O)C1CCCCC1N(CC(=O)O)CC(=O)O (stereo not drawn)
TGI [1]: > 100 µM
TGI [2]: > 100 µM
TGI [3]: > 100 µM
TGI [4]: > 100 µM
TGI [5]: > 100 µM
TGI [6]: > 100 µM
TGI [7]: > 100 µM
TGI [8]: > 100 µM
TGI [9]: > 100 µM
TGI [10]: > 100 µM
TGI [11]: > 100 µM
TGI [12]: > 100 µM
TGI [14]: > 100 µM
TGI [54]: > 100 µM
TGI [15]: > 100 µM
TGI [16]: > 100 µM
TGI [17]: > 100 µM
TGI [18]: > 100 µM
TGI [19]: > 100 µM
TGI [21]: > 100 µM
TGI [22]: > 100 µM
TGI [23]: 94.9 µM
TGI [24]: > 100 µM
TGI [25]: > 100 µM
TGI [26]: > 100 µM
TGI [27]: > 100 µM
TGI [28]: > 100 µM
TGI [55]: > 100 µM
TGI [29]: > 100 µM
TGI [30]: > 100 µM
TGI [56]: > 100 µM
TGI [31]: > 100 µM
TGI [32]: > 100 µM
TGI [33]: > 100 µM
TGI [34]: > 100 µM
TGI [35]: > 100 µM
TGI [36]: > 100 µM
TGI [37]: > 100 µM
TGI [38]: > 100 µM
TGI [39]: > 100 µM
TGI [40]: > 100 µM
TGI [59]: > 100 µM
TGI [41]: > 100 µM
TGI [42]: > 100 µM
TGI [43]: > 100 µM
TGI [44]: > 100 µM
TGI [45]: > 100 µM
TGI [46]: > 100 µM
TGI [57]: > 100 µM
TGI [47]: > 100 µM
TGI [58]: > 100 µM
TGI [48]: > 100 µM
TGI [49]: > 100 µM
TGI [50]: > 100 µM
TGI [51]: > 100 µM
TGI [52]: > 100 µM
TGI [53]: > 100 µM
